# Tested on: 996289-038-R-J1-PDC spheroid viability
# Assay: Anticancer human tumor 996289-038-R-J1-PDC patient-derived colon adenocarcinoma cell line growth inhibition [PI3K]
# Conditions: spheroids with HUVEC and MSC; for IC50: curve of first compound; for viability, T/C: stronger effect = lower value
# From the text: Combinatorial screen of targeted agents with the PI3K inhibitors inavolisib, alpelisib, duvelisib, and copanlisib in multi-cell type tumor spheroids
# A high-throughput screen of multi-cell type tumor spheroids was designed to identify active combinations of targeted small molecules and PI3K pathway inhibitors. Complex spheroids include a stromal component modeled by human endothelial cells (HUVEC) and fibroblasts modeled by human mesenchymal stem cells (MSCs). The concentration ranges selected for each drug and investigational agent were based upon clinically achievable concentrations if the clinical Cmax of the agent was known.
# Compounds. The drugs and investigational agents: inavolisib (NSC800729), alpelisib (NSC765974), duvelisib (NSC772469), copanlisib (NSC816437), ipatasertib (NSC767898), afuresertib (NSC778305), talazoparib (NSC767125), sapanisertib (NSC764658), selumetinib (NSC741078), tovorafenib (DAY101, NSC766906), vemurafenib (NSC761431), ravoxertinib (NSC781343), sotorasib (NSC818433), MRTX1133 (NSC 836407), abemaciclib (NSC 768073), palbociclib (NSC758247), venetoclax (NSC 766270), SY5609 (NSC837396), enzalutamide (NSC755605), and darolutamide (NSC825331), were obtained from the National Cancer Institute (NCI) Developmental Therapeutics Program Chemical Repository. The FDA-approved anticancer drug set is available from the NCI Developmental Therapeutics Program. […] The stock solutions were prepared in dimethyl sulfoxide (DMSO, Sigma-Aldrich, St. Louis, MO, cat. D2650) at 800-fold the tested concentration and stored at -70 degrees C prior to their use. All drugs and investigational agents were tested over a range starting from a high concentration at or near the clinical Cmax and decreasing in half-log increments. If the clinical Cmax for an agent had not been determined, the highest concentration tested was 10 microM.
# Cell Culture. All cells were maintained in an incubator at 37 degrees C and 5% CO2 with 95% humidity. The PDC lines were cultured according to standard operating procedures established by the NCI PDMR (https://pdmr.cancer.gov/sops/default.htm). All PDCs were thawed and cultured in Matrigel-coated flasks prepared with a working solution of 1X Ham's F-12 nutrient mix, without supplementation (Invitrogen, Waltham, MA, cat. 11765054), 100 U/mL penicillin-streptomycin (Invitrogen, cat. 15140122), and 2.5% Matrigel (Corning Inc., Corning, NY, cat. 354248) for the first three passages. The 354836-022-R-J1-PDC, 475296-252-R-J1-PDC, and 997726-040-R-J2-PDC lines were cultured in 6A media, which includes advanced DMEM/F-12 (Thermo Fisher Scientific, cat. 12634028), 10 mM HEPES (Thermo Fisher Scientific, cat. 15630080), 1X GlutaMAX supplement (Thermo Fisher Scientific, cat. 35050061), 0.1 mg/mL primocin (InvivoGen, San Diego, CA, cat. ant-pm-2), 10% defined fetal bovine serum, heat inactivated (HyClone Laboratories Inc., Logan, UT, cat. SH30070.03HI), 50% L-WRN conditioned media (ATCC, cat. CRL-3276), 1.25 mM N-Acetyl-L-cysteine (Sigma-Aldrich, cat. A9165), 10 mM nicotinamide (Sigma-Aldrich, cat. N0636), 1X B-27 supplement (Thermo Fisher Scientific, cat. 17504044), 1X N-2 supplement (Thermo Fisher Scientific, cat. 17502048), and 10 microM Y-27632 dihydrochloride (Tocris Bioscience, Bristol, United Kingdom, cat. 1254). The 624824-186-R-J2-PDC line was cultured in 6C/Colon 1B media, which includes all 6A media components plus 50 ng/mL human EGF recombinant protein (Thermo Fisher Scientific, cat. PHG0311). […]
# [1] = second compound 0.0316 µM, first compound 0.0316 µM
# [2] = second compound 0.0316 µM, first compound 0.1 µM
# [3] = second compound 0.0316 µM, first compound 0.316 µM
# [4] = second compound 0.0316 µM, first compound 1 µM
# [5] = second compound 0.0316 µM, first compound 3.16 µM
# [6] = second compound 0.0316 µM, first compound 10 µM
# [7] = second compound 0.1 µM, first compound 0.0316 µM
# [8] = second compound 0.1 µM, first compound 0.1 µM
# [9] = second compound 0.1 µM, first compound 0.316 µM
# [10] = second compound 0.1 µM, first compound 1 µM
# [11] = second compound 0.1 µM, first compound 3.16 µM
# [12] = second compound 0.1 µM, first compound 10 µM
# [13] = second compound 0.316 µM, first compound 0.0316 µM
# [14] = second compound 0.316 µM, first compound 0.1 µM
# [15] = second compound 0.316 µM, first compound 0.316 µM
# [16] = second compound 0.316 µM, first compound 1 µM
# [17] = second compound 0.316 µM, first compound 3.16 µM
# [18] = second compound 0.316 µM, first compound 10 µM
# [19] = second compound 1 µM, first compound 0.0316 µM
# [20] = second compound 1 µM, first compound 0.1 µM
# [21] = second compound 1 µM, first compound 0.316 µM
# [22] = second compound 1 µM, first compound 1 µM
# [23] = second compound 1 µM, first compound 3.16 µM
# [24] = second compound 1 µM, first compound 10 µM
# 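Note: spheroids exposed to compounds for seven days before viability read.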
# 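Throughout, for viability, T/C: luminescence used as a proxy for viable cell amount; percent viability relative to DMSO vehicle control as 100%.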
smiles,measurement,setting,value
C#Cc1c(F)ccc2cc(O)cc(-c3ncc4c(N5CC6CCC(C5)N6)nc(OCC56CCCN5CC(F)C6)nc4c3F)c12 (centres undefined) + Cc1nc(NC(=O)N2CCCC2C(N)=O)sc1-c1ccnc(C(C)(C)C(F)(F)F)c1,IC50,second compound 0.0316 µM,1670 nM
same,IC50,second compound 0.1 µM,610 nM
same,IC50,second compound 0.316 µM,291 nM
same,IC50,second compound 1 µM,156 nM
same,IC50,second compound 3.16 µM,77.7 nM
same,IC50,second compound 10 µM,< 31.6 nM
same,"viability, T/C",[1],80.9%
same,"viability, T/C",[2],77.1%
same,"viability, T/C",[3],66.6%
same,"viability, T/C",[4],53.9%
same,"viability, T/C",[5],45.4%
same,"viability, T/C",[6],40.2%
same,"viability, T/C",[7],94.4%
same,"viability, T/C",[8],78.5%
same,"viability, T/C",[9],55.6%
same,"viability, T/C",[10],45.1%
same,"viability, T/C",[11],39.6%
same,"viability, T/C",[12],33.4%
same,"viability, T/C",[13],72.9%
same,"viability, T/C",[14],55%
same,"viability, T/C",[15],50.8%
same,"viability, T/C",[16],40.1%
same,"viability, T/C",[17],37.8%
same,"viability, T/C",[18],27.8%
same,"viability, T/C",[19],65.5%
same,"viability, T/C",[20],54.8%
same,"viability, T/C",[21],42.6%
same,"viability, T/C",[22],33.2%
same,"viability, T/C",[23],27.8%
same,"viability, T/C",[24],23.4%
same,"viability, T/C","second compound 3.16 µM, first compound 0.0316 µM",64%
same,"viability, T/C","second compound 3.16 µM, first compound 0.1 µM",47.2%
same,"viability, T/C","second compound 3.16 µM, first compound 0.316 µM",30.5%
same,"viability, T/C","second compound 3.16 µM, first compound 1 µM",26.8%
same,"viability, T/C","second compound 3.16 µM, first compound 3.16 µM",23.3%
same,"viability, T/C","second compound 3.16 µM, first compound 10 µM",16.9%
same,"viability, T/C","second compound 10 µM, first compound 0.0316 µM",37.6%
same,"viability, T/C","second compound 10 µM, first compound 0.1 µM",35.6%
same,"viability, T/C","second compound 10 µM, first compound 0.316 µM",22.2%
same,"viability, T/C","second compound 10 µM, first compound 1 µM",16.7%
same,"viability, T/C","second compound 10 µM, first compound 3.16 µM",14.5%
same,"viability, T/C","second compound 10 µM, first compound 10 µM",6.74%
C#Cc1c(F)ccc2cc(O)cc(-c3ncc4c(N5CC6CCC(C5)N6)nc(OCC56CCCN5CC(F)C6)nc4c3F)c12 (centres undefined) + COc1c(OCCCN2CCOCC2)ccc2c3n(c(=NC(=O)c4cnc(N)nc4)nc12)CCN3,IC50,second compound 0.00316 µM,807 nM
same,IC50,second compound 0.01 µM,507 nM
same,IC50,second compound 0.0316 µM,231 nM
same,IC50,second compound 0.1 µM,57.4 nM
same,IC50,second compound 0.316 µM,< 31.6 nM
same,IC50,second compound 1 µM,< 31.6 nM
same,"viability, T/C","second compound 0.00316 µM, first compound 0.0316 µM",91.4%
same,"viability, T/C","second compound 0.00316 µM, first compound 0.1 µM",71.3%
same,"viability, T/C","second compound 0.00316 µM, first compound 0.316 µM",60.9%
same,"viability, T/C","second compound 0.00316 µM, first compound 1 µM",47.2%
same,"viability, T/C","second compound 0.00316 µM, first compound 3.16 µM",39.9%
same,"viability, T/C","second compound 0.00316 µM, first compound 10 µM",35.3%
same,"viability, T/C","second compound 0.01 µM, first compound 0.0316 µM",79.8%
same,"viability, T/C","second compound 0.01 µM, first compound 0.1 µM",83.6%
same,"viability, T/C","second compound 0.01 µM, first compound 0.316 µM",55.4%
same,"viability, T/C","second compound 0.01 µM, first compound 1 µM",40.3%
same,"viability, T/C","second compound 0.01 µM, first compound 3.16 µM",31.1%
same,"viability, T/C","second compound 0.01 µM, first compound 10 µM",26.9%
same,"viability, T/C",[1],68.7%
same,"viability, T/C",[2],61.3%
same,"viability, T/C",[3],45%
same,"viability, T/C",[4],33.2%
same,"viability, T/C",[5],25.8%
same,"viability, T/C",[6],19%
same,"viability, T/C",[7],55.1%
same,"viability, T/C",[8],46%
same,"viability, T/C",[9],29.6%
same,"viability, T/C",[10],23.1%
same,"viability, T/C",[11],16.4%
same,"viability, T/C",[12],14.8%
same,"viability, T/C",[13],35.3%
same,"viability, T/C",[14],27.9%
same,"viability, T/C",[15],19.7%
same,"viability, T/C",[16],14%
same,"viability, T/C",[17],10.6%
same,"viability, T/C",[18],7.75%
same,"viability, T/C",[19],15.9%
same,"viability, T/C",[20],16.8%
same,"viability, T/C",[21],11.1%
same,"viability, T/C",[22],7.03%
same,"viability, T/C",[23],5.65%
same,"viability, T/C",[24],4.52%
